Source: US8143424B2, “Thyroid like compounds” (Torrent Pharmaceuticals Ltd., priority 2007, dated 2012)

Tests used:
[1] = test system: C57BL6 mice fed High Fat Diet; test: Food consumption in High Fat Diet fed mice; type: in vivo; conditions: Dose 11 μM/kg intraperitoneally, 7-15 days
Experimental: (§1) C57BL6 mice (14-18 weeks age), fed for 8-12 weeks with High Fat Diet (45% kcal fat) were used for the study. The mice were placed in individual housing for one week. The mice were then kept in oxymax cages for 48 h for acclimatization. Basal recordings of oxygen consumption and carbon dioxide production for each mouse were recorded with indirect open circuit calorimeter (Oxymax, Columbus Instruments, USA (Ling fu et al., Endocrinology (2004); 145 (6); 2591-3). On the basis of body weight and basal oxygen consumption, mice were randomized and divided into two groups. • I) Vehicle treated group • II) Test compound treated group
(§2) The mice were treated with vehicle and test compounds intraperitoneally for 7-15 days. On the day 8, Oxygen consumption was measured for individual mouse 30 min after the drug treatment and % change with respect to vehicle is calculated.
(§3) During the experiment food consumption was monitored daily. At the end of the experiment the animals were scarified and the heart weights were recorded.

[2] = test system: C57BL6 mice fed High Fat Diet; test: Heart weight in High Fat Diet fed mice; type: in vivo; conditions: Dose 11 μM/kg intraperitoneally, end of experiment
Experimental: as §1, §2, §3

[3] = test system: C57BL6 mice fed High Fat Diet; test: Oxygen consumption (Oxymax indirect calorimeter) in High Fat Diet fed mice; type: in vivo; conditions: Dose 11 μM/kg intraperitoneally, day 8, % change vs vehicle; for change in vivo at 11 µM, 11 µmol/kg: Mus musculus, ip, 192 h, read-out: increase in O2 cons
Experimental: as §1, §2

[4] = biological target: T1, THR α1 (Homo sapiens, UniProt P10827); test: Thyroid α1 transactivation (TRE reporter, luciferase) in COS7 cells; type: cell-based; conditions: Conc. 20 uM, 24 hours, vs vehicle control
T1 construct: GAL4 (plasmid pGAL4); expressed in transfected cells; host or cells: COS7
T1 sequence (P10827 1-410 isoform P10827-2): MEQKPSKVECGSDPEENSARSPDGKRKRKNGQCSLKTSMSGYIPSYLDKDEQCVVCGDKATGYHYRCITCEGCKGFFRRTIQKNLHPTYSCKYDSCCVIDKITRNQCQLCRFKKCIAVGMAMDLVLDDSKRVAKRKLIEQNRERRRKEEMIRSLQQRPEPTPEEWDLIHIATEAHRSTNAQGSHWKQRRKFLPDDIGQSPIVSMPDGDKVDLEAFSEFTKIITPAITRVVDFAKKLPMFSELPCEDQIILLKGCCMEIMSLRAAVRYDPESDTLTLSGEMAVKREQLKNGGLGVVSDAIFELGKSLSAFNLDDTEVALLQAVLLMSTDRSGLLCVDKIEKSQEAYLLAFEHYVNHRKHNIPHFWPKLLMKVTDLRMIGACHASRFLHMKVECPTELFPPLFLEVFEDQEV
Experimental: (§4) Compounds of the present invention were tested for their effect on O2 consumption (metabolic effect), LDL cholesterol, glucose levels, insulin levels and food consumption (appetite stimulant) and also to assess transcriptional activity of thyroid hormone receptor by in vitro TRE (Thyroid receptor element) reporter assay for TRα1 and TRβ1.
(§5) COS7 cells were transiently transfected with pGAL4 […]/Thyroid α1 or pGAL4/Thyroid β1 and pLuc Pur. The cells were cotransfected with pLacZNorm for normalization of transfection efficiency. Transfected cells were then treated with different concentrations of compounds of present invention, vehicle for 24 hours.
(§6) Cells were the lysed and luciferase activity was monitored in all samples. Results were expressed as fold activation as compared to vehicle control.
(§7) Results: Thyroid(α1/β1) transactivation in COS7 cells.

[5] = biological target: T2, THR β1 (Homo sapiens, UniProt P10828); test: Thyroid β1 transactivation (TRE reporter, luciferase) in COS7 cells; type: cell-based; conditions: Conc. 20 uM, 24 hours, vs vehicle control
T2 construct: GAL4 (plasmid pGAL4); expressed in transfected cells; host or cells: COS7
T2 sequence (P10828 1-461): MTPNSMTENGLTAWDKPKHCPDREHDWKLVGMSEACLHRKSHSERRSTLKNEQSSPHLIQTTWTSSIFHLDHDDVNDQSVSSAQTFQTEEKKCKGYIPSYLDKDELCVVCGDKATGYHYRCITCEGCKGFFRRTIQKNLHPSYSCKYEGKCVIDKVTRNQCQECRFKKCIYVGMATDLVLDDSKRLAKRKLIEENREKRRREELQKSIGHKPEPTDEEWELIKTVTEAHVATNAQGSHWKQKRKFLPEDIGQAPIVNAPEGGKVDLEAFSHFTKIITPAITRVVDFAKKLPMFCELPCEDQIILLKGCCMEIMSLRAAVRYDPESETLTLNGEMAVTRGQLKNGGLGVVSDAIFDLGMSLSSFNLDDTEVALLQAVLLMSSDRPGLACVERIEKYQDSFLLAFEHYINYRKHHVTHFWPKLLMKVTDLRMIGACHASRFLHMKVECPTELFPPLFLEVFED
Experimental: as §4, §5, §6, §7

| Compound | increase in food consumption with reference to vehicle [1] | increase in Heart weight with reference to vehicle [2] | α1 Fold Activation [4] [Fold] | β1 Fold Activation [5] [Fold] | increase in O2 cons [3] | change in vivo at 11 µM, 11 µmol/kg [3] [%] |
| --- | --- | --- | --- | --- | --- | --- |
| 3-[4-(7-Hydroxy-indan-4-yloxy)-3-thiophen-2-yl-pyrazol-1-yl]-propionic acid And 3-[4-(7-Hydroxy-indan-4-yloxy)-5-thiophen-2-yl-pyrazol-1-yl]-propionic acid [Compound 7] | No change | No change |  |  | ** (** = Increase > 5%) |  |
| Cc1nn(CCC(=O)O)c(C)c1Oc1ccc(O)c2c1CCC2 [Compound 1, 3-[4-(7-Hydroxy-indan-4-yloxy)-3,5-dimethyl-pyrazol-1-yl]-propionic acid] | No change | No change | 1 | 1 |  | < 5 |
| Cc1nn(CC(=O)Nc2nnn[nH]2)c(C)c1Oc1ccc(O)c2c1CCC2 [Compound 6, 2-[4-(7-Hydroxy-indan-4-yloxy)-3,5-dimethyl-pyrazol-1-yl]-N-(1H-tetrazol-5-yl)-acetamide] | No change | No change |  |  |  | < 5 |
| COc1c(C)cc(Cc2c(C)nn(CCC(=O)O)c2C)c2c1CCC2 [Compound 14, 3-[4-(7-Methoxy-6-methyl-indan-4-ylmethyl)-3,5-dimethyl-pyrazol-1-yl]-propionic acid] | No change | No change |  |  |  | < 5 |
| CCc1nn(CC(=O)O)c(CC)c1Cc1cc(C)c(O)c2c1CCC2 [Compound 19, [3,5-Diethyl-4-(7-hydroxy-6-methyl-indan-4-ylmethyl)-pyrazol-1-yl]-acetic acid] | No change | No change |  |  |  | > 5 |
| CCc1nn(CCC(=O)O)c(CC)c1Cc1cc(C)c(O)c2c1CCC2 [Compound 20, 3-[3,5-Diethyl-4-(7-hydroxy-6-methyl-indan-4-ylmethyl)-pyrazol-1-yl]-propionic acid] | No change | No change |  |  |  | > 5 |

Now from value to compound, other results behind:

| increase in food consumption with reference to vehicle [1] | increase in Heart weight with reference to vehicle [2] | α1 Fold Activation [4] [Fold] | β1 Fold Activation [5] [Fold] | Compound | increase in O2 cons [3] | change in vivo at 11 µM, 11 µmol/kg [3] [%] |
| --- | --- | --- | --- | --- | --- | --- |
| No change | No change | 3 | 1 | 7-[1-(1H-Tetrazol-5-ylmethyl)-3-thiophen-2-yl-1H-pyrazol-4-yloxy]-indan-4-ol And 7-[1-(1H-Tetrazol-5-ylmethyl)-5-thiophen-2-yl-1H-pyrazol-4-yloxy]-indan-4-ol [Compound 8] | ** (** = Increase > 5%) |  |
| No change | No change | 1 | 1 | Cc1nn(CCC(=O)O)c(C)c1Cc1ccc2[nH]ccc2c1 [Compound 2, 3-[4-(1H-Indol-5-ylmethyl)-3,5-dimethyl-pyrazol-1-yl]-propionic acid] |  | < 5 |
| No change | No change | 1 | 1 | Cc1nn(Cc2nnn[nH]2)c(C)c1Oc1ccc(O)c2c1CCC2 [Compound 3, 7-[3,5-Dimethyl-1-(1H-tetrazol-5-ylmethyl)-1H-pyrazol-4-yloxy]-indan-4-ol] |  | > 5 |
| No change | No change | 2.5 | 2 | Cc1cc(Cc2c(C)nn(CCC(=O)O)c2C)c2c(c1O)CCC2 [Compound 9, 3-[4-(7-Hydroxy-6-methyl-indan-4-ylmethyl)-3,5-dimethyl-pyrazol-1-yl]-propionic acid] |  | > 5 |
